Reference: the Kinase Knowledgebase extract (Sharma et al. 2016)

How the values were obtained:
[1] = target: EGFR (murine) (UniProt P00533); conditions: her 14
[2] = target: EGFR (murine) (UniProt P00533); conditions: for IC50: her 14
[3] = target: EGFR (UniProt P00533)
EGFR, sequence (P00533 whole entry, looked up): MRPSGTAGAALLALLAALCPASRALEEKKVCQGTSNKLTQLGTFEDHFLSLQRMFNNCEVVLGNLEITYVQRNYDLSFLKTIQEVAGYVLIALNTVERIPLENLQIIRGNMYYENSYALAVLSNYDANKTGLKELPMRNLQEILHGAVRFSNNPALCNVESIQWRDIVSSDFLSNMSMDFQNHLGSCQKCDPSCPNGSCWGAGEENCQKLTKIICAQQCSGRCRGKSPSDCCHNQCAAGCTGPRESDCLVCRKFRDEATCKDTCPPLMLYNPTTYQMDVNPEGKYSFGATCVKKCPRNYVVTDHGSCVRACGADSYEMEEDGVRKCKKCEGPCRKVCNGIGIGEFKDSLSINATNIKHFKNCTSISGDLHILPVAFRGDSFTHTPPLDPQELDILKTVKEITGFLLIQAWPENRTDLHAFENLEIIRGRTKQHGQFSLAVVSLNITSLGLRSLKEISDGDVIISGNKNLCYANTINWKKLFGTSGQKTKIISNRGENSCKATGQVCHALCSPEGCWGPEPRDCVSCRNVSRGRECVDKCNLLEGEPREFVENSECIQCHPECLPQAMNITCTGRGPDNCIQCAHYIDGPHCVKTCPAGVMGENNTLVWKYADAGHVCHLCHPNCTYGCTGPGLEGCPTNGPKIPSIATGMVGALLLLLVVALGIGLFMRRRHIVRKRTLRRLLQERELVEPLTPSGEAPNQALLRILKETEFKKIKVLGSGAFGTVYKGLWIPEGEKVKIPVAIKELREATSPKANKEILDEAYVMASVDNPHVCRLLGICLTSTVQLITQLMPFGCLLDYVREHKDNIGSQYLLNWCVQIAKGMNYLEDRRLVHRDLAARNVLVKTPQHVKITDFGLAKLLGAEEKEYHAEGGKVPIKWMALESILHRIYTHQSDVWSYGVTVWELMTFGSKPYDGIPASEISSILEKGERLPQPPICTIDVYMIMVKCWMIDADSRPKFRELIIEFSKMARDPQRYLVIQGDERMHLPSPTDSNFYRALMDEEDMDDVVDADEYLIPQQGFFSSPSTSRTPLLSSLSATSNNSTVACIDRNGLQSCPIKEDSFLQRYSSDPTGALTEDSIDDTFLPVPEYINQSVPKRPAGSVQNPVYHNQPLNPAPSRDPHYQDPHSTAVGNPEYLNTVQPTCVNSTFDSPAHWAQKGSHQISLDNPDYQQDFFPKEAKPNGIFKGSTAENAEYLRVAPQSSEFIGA

EGFR (murine), sequence (P00533 whole entry, looked up): as above

| Compound | IC50 [1] [µM] | IC50 [2] [µM] | IC50 [3] [µM] | inhibition ([2]; her 14, dose or concentration not given here) [%] |
| --- | --- | --- | --- | --- |
| N#C/C(=C\c1ccc(O)c(O)c1)C(=O)c1ccccc1 | 15 | 120 |  |  |
| N#C/C(=C/c1ccc(O)c(O)c1)C(=O)NC1CCCCC1 | 15 |  |  |  |
| N#CC(C#N)=C1C(=O)Nc2cc(O)c(O)cc21 | > 16 |  |  |  |
| N#CC(C#N)=Cc1ccc2[nH]ccc2c1 | > 100 |  |  |  |
| Cc1cccc(C)c1NC(=O)/C(C#N)=C/c1ccc(O)c(O)c1 |  | > 20 |  |  |
| N#C/C(=C\c1ccc(O)c(O)c1)C(=O)NCCCc1ccccc1 | 2.5 | 25 |  |  |
| N#C/C(=C\c1ccc(O)c(O)c1)C(=O)NCCCCc1ccccc1 | 3 | 10 |  |  |
| N#C/C(=C\c1ccc(O)c(O)c1)C(=O)NC1CCCCC1 |  | 50 |  |  |
| N#C/C(=C\c1ccc(O)c(O)c1)C(N)=O | 15 | 60 | 10 |  |
| N#CC(C#N)=Cc1cccc(O)c1 |  |  | 375 |  |
| CC(NC(=O)/C(C#N)=C/c1ccc(O)c(O)c1)c1ccccc1 (stereo not given) | 3.5 | 10 |  | 0.88 |
| Cc1ccc(C(=O)/C(C#N)=C/c2ccc(O)c(O)c2)cc1 | 7 | 100 |  |  |
| N#C/C(=C\c1ccc(O)c(O)c1)C(=O)c1ccc(F)cc1 | 20 | 80 |  |  |
| COc1cc(C=C(C#N)C#N)ccc1O |  |  | 200 |  |
| N#C/C(=C/c1ccc(O)c(O)c1)C(=O)NCc1ccccc1 | 3.5 |  |  |  |
| N#C/C(=C\c1ccc(O)c(O)c1)C(=O)c1ccc([N+](=O)[O-])cc1 | 20 | < 20 |  |  |
| N#CC(C#N)=Cc1cc[n+]([O-])cc1 |  |  | 1300 |  |
| COc1cc2c(cc1O)NC(=O)C2=C(C#N)C#N | ≥ 120 |  |  |  |
| N#CC(C#N)=C1CCc2cc(O)c(O)cc21 | 30 | > 150 |  |  |
| N#CC(C#N)=C1C(=O)Nc2ccc([N+](=O)[O-])cc21 | 20 |  |  |  |
| N#C/C(=C\c1ccc(O)c(O)c1)C(=O)Nc1ccccc1Cl | 35 | 12 |  |  |
| N#C/C(=C\c1ccc(O)c(O)c1)C(=O)N1CCc2ccccc21 | 25 | 100 |  |  |
